Test in all cases: inhibition of tumour cell growth, NCI panel, 48 h
For test [1], the system named is T-47D breast.
Test [2] relates to MDA-N.
The subject of test [3] is KM20L2 colon.
Test [4] deals with DMS 273 small cell lung.
Test [5] deals with SNB-78 CNS.
Test [6] concerns LXFL 529 NSCLC.
For test [7], the system named is RXF-631 renal.

“And” between values parts separate entries of the source, which are not always exact repeats. Identical values can stand only once.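 Growth conditions: 96-well plates. Treatment: test compound, 48 hours, 5 concentrations. Analysis: linear interpolation between bracketing concentrations; unreached endpoints set to highest concentration. Here, GI50 denotes the concentration required for 50% inhibition of growth. TGI: concentration producing complete growth inhibition.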

With `Cc1c2c(nn1C)CSCc1cc(n(C)n1)CSc1cc(c3ccccc3c1)OCCCc1c(C(=O)O)n(C)c3c-2c(Cl)ccc13`, in test [1], the GI50 was 3.88 µM and the TGI was 15.7 µM.
Consider `COc1ccc(OC)c(-c2c(C#N)c(N)nc(N3CCOCC3)c2C#N)c1`, for which, in test [1], the GI50 is 45.1 µM and the TGI is more than 100 µM.
As to `Nc1ncnc2c1nnn2C1CCC(CP(=O)(O)O)C1` (stereo not given), the TGI in test [2] and in test [1] was more than 100 µM throughout.
In the case of `O=C1c2c(O)cccc2C(C2OC(CO)C(O)C(O)C2O)c2cc(CO)cc(O)c21` (stereo not given), the TGI in test [2] and in test [1] was more than 100 µM in each case.
Take `CCOc1cc2ncc(C#N)c(Nc3ccc(OCc4ccccn4)c(Cl)c3)c2cc1NC(=O)/C=C/CN(C)C`: in test [1], the TGI was 29.7 µM and > 2.61 µM.
For `O=C(COc1ccc(/C=C2\Oc3ccccc3C2=O)cc1)Nc1nc2c(s1)CCCC2`, in test [1], the GI50 is 48.4 µM and the TGI was more than 100 µM.
As for `CC[N+]1(C)CCC(O)(c2ccc(Cl)c(Cl)c2)C(C(=O)c2ccc(Cl)c(Cl)c2)C1` (stereo not given), the TGI in test [2] and in test [1] was more than 10 µM throughout.
`O=C1c2ccccc2-c2c1c1ccccc1c(=O)n2CCN1CCOCC1`: in test [1], the GI50 is more than 100 µM and the TGI is more than 100 µM.
`C=C1c2[nH]c3c([N+](=O)[O-])c(OC)ccc3c2CCN1C(C)=O`: the TGI in test [3], in test [4], in test [5] and in test [6] was more than 100 µM throughout.
For `O=C(NC[C@H](O)CO)c1ccncc1Nc1ccc(I)cc1F`, in test [1], the GI50 was > 10 µM and 19.3 µM; the TGI is more than 100 µM.
In the case of `CCOC(=O)NC(=O)c1cn(CCCCCCOC(=O)NCCCCCCNC(=O)OCCCCCCn2cc(C(=O)NC(=O)OCC)c(=O)[nH]c2=O)c(=O)[nH]c1=O`, the TGI in test [7], in test [3], in test [4] and in test [6] was more than 100 µM in each case.
Turning to `O=C(/C=C/c1ccc([N+](=O)[O-])cc1)c1ccc2c3c(cccc13)CC2`, in test [1], the GI50 is 1.57 µM and the TGI was more than 24.8 µM.
Regarding `CC1(C)CC(C)(C)C1=NNC(N)=O`, the TGI in test [2] and in test [1] was more than 100 µM in each case.
For `CC1=C(CO)C(=O)O[C@@H]([C@@H](C)[C@H]2CC[C@H]3[C@@H]4C[C@@H](O)[C@@]5(O)CC=CC(=O)[C@]5(C)[C@H]4CC[C@]23C)C1`, the TGI in test [2] and in test [1] was more than 100 µM each time.
With `CN(C(=O)c1ccco1)C(=S)N1CCN(c2ccccc2)CC1`, the TGI in test [3], in test [4] and in test [6] was more than 100 µM throughout.
With `O=C1CC(S(=O)(=O)O)C=C1Nc1cccc(Cl)c1` (stereo not given), the TGI in test [3], in test [4], in test [5] and in test [6] was more than 100 µM in each case.
Consider `Cc1ccc(N2C(=O)C3C=CC(n4[nH]c(=O)n(Cc5ccccc5)c4=O)CC3C2=O)cc1` (stereo not given), for which the TGI in test [3], in test [4], in test [5] and in test [6] was more than 100 µM throughout.
For the molecule `O=CC1CCCc2ccccc21` (stereo not given), the TGI in test [3], in test [4], in test [5] and in test [6] was more than 100 µM throughout.
On to `N#Cc1c(-c2ccc(Cl)cc2)c2c(n(C3OC(CO)C(O)C(O)C3O)c1=S)CCC2` (stereo not given), for which the TGI in test [2] is more than 100 µM; in test [1], 45.8 µM.
For the molecule `CCc1ccc(NC(=O)COC(=O)c2cc([N+](=O)[O-])ccc2Sc2nnnn2C)cc1`, in test [1], the GI50 was 18.5 µM and the TGI turned out to be 82.4 µM.
The like results for `Cn1cc(C2=C(c3cccc(OCC(O)CO)c3)C(=O)NC2=O)c2ccccc21` (stereo not given) were, in that order, more than 25 µM and more than 25 µM.
Take `O=[N+]([O-])c1cccc([As]=[As]c2cccc([N+](=O)[O-])c2)c1` (stereo not given): in test [1], the GI50 is 0.0358 µM and the TGI is 0.164 µM.
On the same counts, the results for `O=C(Nc1ccc(Cl)c(Cl)c1)O/N=C\c1c(Cl)ccc([N+](=O)[O-])c1Cl` are 0.778 µM and 3.54 µM.
On the same counts, the results for `O=C(Nc1cccc(NC(=O)Nc2cc(C(F)(F)F)ccc2Cl)c1)Nc1cc(C(F)(F)F)ccc1Cl` are 0.407 µM and 11.4 µM.
`CC1(C)C2C=CC1(C)C1(CC2)OCCO1` (stereo not given): the TGI in test [2] and in test [1] was more than 100 µM in each case.
For `COc1ccc(/C=N/N=C(\N)NO)c(OC)c1`, the TGI is more than 100 µM in test [5] and 86.3 µM in test [6].
`COc1ccc(/C=C2\S/C(=N/Nc3nc(-c4ccccc4)cs3)NC2=O)cc1OC` had a TGI in test [2] of 33.7 µM.
Turning to `O=S1(=O)OCCOS(=O)(=O)C1Cc1ccccc1`, the TGI in test [3], in test [4] and in test [5] was more than 100 µM in each case.
Regarding `COC(=O)C1=C(c2cc(OC)c(OC)c(OC)c2)OC(c2ccc(OC)c(OC)c2)C1` (stereo not given), the TGI in test [3], in test [4] and in test [6] was more than 100 µM in each case.
As for `CC#CC(=O)SCCNC(=O)CC`, the TGI in test [2] and in test [1] was more than 10 µM each time.
`C1=C2/CC[C@H](Sc3ccccc3)[C@H]2C2(CCCCC/1)OCCO2`: the TGI in test [3] was 45.3 µM; in test [4] it was more than 100 µM; in test [5], more than 100 µM; in test [6], more than 100 µM.
For `N#CC(c1nc2ccccc2nc1Cl)S(=O)(=O)c1ccccc1` (stereo not given), the TGI in test [3] is more than 100 µM; in test [4] it was more than 100 µM; in test [5], 94.4 µM; in test [6], more than 100 µM.
In the case of `CCN(CC)Cc1ccc(Nc2nccc(-c3cnn4ncccc34)n2)cc1`, in test [1], the GI50 is 0.0542 µM and the TGI was found to be 6.6 µM.
On the same counts, the results for `C1CN(SSN2CCOCC2)CCO1` are 45 µM and more than 100 µM.
The like results for `O=C(NN1C(=O)CSC12CCCC2)c1[nH]c2ccc(Br)cc2c1-c1ccccc1` were, in that order, 39.1 µM and more than 100 µM.

Values taken from PubChem BioAssay (NCI).
